| SMILES | melting point |
| --- | --- |
| NC(=O)c1[nH]c2cnccc2c1-c1ccc(NC(=O)Nc2ccccc2F)cc1 [Example 47, 3-{4-[3-(2-Fluorophenyl)ureido]phenyl}-1H-pyrrolo[2,3-c]-pyridine-2-carboxamide] | 242 °C |
| Cc1ccc(NC(=O)Nc2ccc(-c3c(C(N)=O)[nH]c4cnccc34)cc2)cc1C [Example 44, 3-{4-[3-(3,4-Dimethylphenyl)ureido]phenyl}-1H-pyrrolo[2,3-c]pyridine-2-carboxamide] | 230 °C |
| NC(=O)c1[nH]c2cnccc2c1-c1ccc(NC(=O)Nc2cccc(C(F)(F)F)c2F)cc1 [Example 49, 3-{4-[3-(2-Fluoro-3-trifluoromethylphenyl)ureido]phenyl}-1H-pyrrolo[2,3-c]pyridine-2-carboxamide] | 240 °C |
| CCc1cccc(NC(=O)Nc2ccc(-c3c(C(N)=O)[nH]c4cnccc34)cc2)c1 [Example 60, 3-{4-[3-(3-Ethylphenyl)ureido]phenyl}-1H-pyrrolo[2,3-c]-pyridine-2-carboxamide] | 257 °C |
| COc1cc(NC(=O)Nc2ccc(-c3c(C(N)=O)[nH]c4ncccc34)cc2)cc(OC)c1 [Example 28, 3-{4-[3-(3,5-Dimethoxyphenyl)ureido]phenyl}-1H-pyrrolo-[2,3-b]pyridine-2-carboxamide] | 266.5 °C |
| NC(=O)c1[nH]c2ncccc2c1-c1ccc(NC(=O)Nc2cc(C(F)(F)F)ccc2Cl)cc1 [Example 12, 3-{4-[3-(2-Chloro-5-trifluoromethylphenyl)ureido]phenyl}-1H-pyrrolo[2,3-b]pyridine-2-carboxamide] | 188.3 °C |
| NC(=O)c1[nH]c2ncccc2c1-c1ccc(NC(=O)Nc2cccc(C(F)(F)F)c2)cc1 [Example 20, 3-{4-[3-(3-Trifluoromethylphenyl)ureido]phenyl}-1H-pyrrolo-[2,3-b]pyridine-2-carboxamide] | 263.6 °C |
| Cc1ccc(NC(=O)Nc2ccc(-c3c(C(N)=O)[nH]c4ncccc34)cc2)cc1C(F)(F)F [Example 26, 3-{4-[3-(4-Methyl-3-trifluoromethylphenyl)ureido]phenyl}-1H-pyrrolo[2,3-b]pyridine-2-carboxamide] | 285 °C |
| Cc1cccc(NC(=O)Nc2ccc(-c3c(C(N)=O)[nH]c4ncccc34)cc2)c1 [Example 23, 3-[4-(3-m-Tolylureido)phenyl]-1H-pyrrolo[2,3-b]pyridine-2-carboxamide] | 266 °C |
| NC(=O)c1[nH]c2cnccc2c1-c1ccc(NC(=O)Nc2ccc(OC(F)F)c(Cl)c2)cc1 [Example 58, 3-{4-[3-(3-Chloro-4-difluoromethoxyphenyl)ureido]phenyl}-1H-pyrrolo[2,3-c]pyridine-2-carboxamide] | 267 °C |
| NC(=O)c1[nH]c2ncccc2c1-c1ccc(NC(=O)Nc2ccccc2F)cc1 [Example 9, 3-{4-[3-(2-Fluorophenyl)ureido]phenyl}-1H-pyrrolo[2,3-b]-pyridine-2-carboxamide] | 268.7 °C |
